Columns and labels:
RAW264.7 macrophages = assay: RAW264.7 macrophage NO assay (LPS-induced NO production, Griess reagent); format: cell-based; details: for IC50: Mus musculus, RAW264.7, NO production, LPS 1 μg/ml, 24 hours
Procedure: (§1) After the pretreatment, the MTT (Sigma, M2128) reagent at a concentration of 0.5 mg/ml was further added thereto. After the cells were cultured in a 5% CO2 incubator for 4 hours, the supernatant was discarded, 150 μl of DMSO was added and was shaken for 30 minutes, and an ELISA micro plate reader (Bio Rad Laboratories Inc., California, USA, Model 680) was used to measure the absorbance at a wavelength of 540 nm. All the experimental values were calculated as an average value of three repeated experimental values of the cell protection rate for the control group, and an experiment of suppressing the NO production for each compound was carried out at a concentration in which no cytotoxicity was shown.
(§2) After the reaction, an ELISA micro plate reader (Bio Rad Laboratories Inc., California, USA, Model 680) was used to measure the absorbance at a wavelength of 540 nm. The suppression rate was calculated as a difference in amount of NO produced between the control group and the experimental group, and as shown in the following Table 7, Compounds 4, 5, 15, 16, 18, and the like of the present invention were excellent in the effect of suppressing the production of NO.

BV2 microglia cells = assay: BV2 cell NO assay (LPS-induced NO production, Griess reagent); format: cell-based; details: Mus musculus, BV-2, LPS 1 μg/ml, 24 hours
Procedure: as §1, with “pretreatment, 0.5 mg/ml of” for “pretreatment,”, “reagent” for “reagent at a concentration of 0.5 mg/ml”, “incubator,” for “incubator for 4 hours,”
as §2, with “6 and FIG. 6,” for “7,”, “NO, and the effect is also about 5 times to about 9 times better than that of glabridin.” for “NO.”

[1] = Chemical stability in 1% HCl in MeOH (HPLC); format: physicochemical
Procedure: (§3) The relative chemical stability of glabridin of Preparation Example 1, Example 3 (Compound 4), Example 4 (Compound 5) and Example 14 (Compound 15) were compared with each other. That is, 50 mg of each of glabridin, Compound 4, Compound 5, and Compound 15 was exactly weighed, dissolved in 50 ml of 1% HCl in MeOH and 10 ml of 1% NaOH in MeOH, and the concentrations of the compounds were examined by HPLC at each time level of 0, 8 hrs, 12 hrs, 24 hrs, 48 hrs, and 72 hrs. At this time, the concentrations of the compounds remaining in 1% HCl in MeOH and 1% NaOH in MeOH were determined using an internal standard (Compound 14 of Example 13). That is, 10 mg of Compound 14 was exactly weighed and dissolved in 100 ml of acetonitrile, 9 ml of this solution was mixed with 1 ml of the sample aliquoted at each time level, the mixture was analyzed by HPLC, and the concentrations of the compounds in the internal standard and in the above samples were determined by comparing the initial values.
(§4) The concentrations of the compounds remaining in 1% HCl in MeOH and 1% NaOH in MeOH at each time level are in the following Table 8 and FIG. 7 and the following Table 9 and FIG. 8, respectively.
(§5) The numerical values exceeding 100% in the following Tables 8 and 9 show those measured at a concentration is slightly higher than the initial measurement value, and this is due to the fact that an average value of the measured values was simply shown without considering a statistical error generated during the measurement. Since the measured value of about 95% or more is deemed to have practically no change in concentration, it may be seen that the compounds of the present invention are excellent in chemical stability.

DIO mice [2] = assay: Organ weights and blood biochemistry of DIO mice after 28 days of administration; format: in vivo, C57BL/6 mice; details: 150 mg/kg
Procedure: (§6) Five-week-old female C57BL/6 mice (Narabio Co., Ltd.) were purchased and fed with only high-fat diet for at least 10 weeks to produce diet induced obesity ([…]) mice. Samples were exactly taken from Preparation Example 1 (glabridin) and the compounds of Examples of the present invention (Compounds 1 to 5, 7, 9, 11, 14 to 16, 21, and 23) according to the administration dose and put into Falcon tubes, 3 ml of a 0.5% methyl cellulose aqueous solution was added thereto and a vortex mixer was used to primarily mix the ingredients in a soft manner, and then a homogenizer (30,000 rpm, Ultra-Turrax® T10 Basic, IKA) was used to treat the sample for 3 minutes while 1.5 ml of a 0.5% methyl cellulose aqueous solution was added thereto. The sample thus prepared was administered through oral gavage using a disposable plastic syringe once daily for 28 days (4 weeks). The body weight was measured twice a week while the DIO mice were bred in this manner. Based on the data thus calculated, the anti-obesity effect (%) was calculated according to the equation defined as follows. Anti-Obesity Effect={(Body weight of control group)−(Body weight of experimental group)}/(Body weight of control group)×100
After the experiment was performed for 28 days (4 weeks) as described above, blood was simultaneously taken while the experimental animal was finally sacrificed, and each of the organs (liver, heart, kidney, pancreas, fat tissues and the like) was removed to measure the weight and observe peculiar matters.
In Table 3, { }, ( ) and the like were used in order to differentiate experiments which had been performed at different periods. Experiments without the parenthesis were those simultaneously performed under the same conditions.

[3] = Chemical stability in 1% NaOH in MeOH (HPLC); format: physicochemical
Procedure: as §3, §4, §5

DIO mice [4] = assay: Anti-obesity effect for DIO mice (body weight); format: in vivo, C57BL/6 mice; details: Mus musculus, 672 h; 4 weeks, 150 mg/kg, oral gavage once daily
Procedure: as §6

PTP1B = PTP1B (Homo sapiens (Human), UniProt P18031); assay: Experiment of PTP1B inhibition (p-NPP dephosphorylation); format: biochemical; details: 2 mM p-NPP substrate, 30° C., 30 minutes
Excerpt: With respect to PTP1B, the degrees of inhibition (IC50 The half maximal inhibitory concentration) of glabridin, and compounds of Preparation Example 2 (Compound 1), Example 2 (Compound 3), Example 3 (Compound 4), Example 4 (Compound 5), Example 13 (Compound 14), Example 14 (Compound 15), Example 15 (Compound 16), Example 17 (Compound 18), Example 18 (Compound 19) and Example 20 (Compound 21) were compared to each other. For this purpose, the degree of inhibition activity for PTP1B was investigated by using 2 mM p-nitrophenyl phosphate (p-NPP) as a substrate to measure the dephosphorylation degree. First, PTP1B diluted with distilled water was reacted with 2 mM p-nitrophenyl phosphate {p-NPP, 0.1 M NaCl, 1 mM EDTA, 50 mM citrate pH 6.0, and 1 mM dithiothreitol (DTT)} and Compound 1 at various concentrations at 30° C. for 30 minutes, and then the reaction was terminated with a 1 N-sodium hydroxide (NaOH) solution. The absorbance of the samples thus prepared was measured to confirm the inhibition degree (IC50: The half maximal inhibitory concentration) for PTP1B activity according to the concentration of Compound 1. Even for glabridin, Compound 3, Compound 4, Compound 5, Compound 14, Compound 15, Compound 16, Compound 18, Compound 19, and Compound 21, the same measurement was performed.

C2C12 cells = assay: Glucose uptake (2-NBDG) in C2C12 cells; format: cell-based; details: 24 hours
Procedure: In terms of capacity of glucose uptake in C2C12 cells, the compound (Compound 15) of Example 14 of the present invention was compared with the existing Rosiglytazone and Metformin which were used or are currently used as a therapeutic agent for diabetes. The C2C12 cell was cultured in a Dulbecco's modified eagle medium (DMEM) supplemented with 10% fetal bovine serum (FBS), penicillin (120 unit/mL), and streptomycin (75 μg/mL), the medium used for differentiation was a DMEM medium supplemented with 1% horse serum, and the C2C12 cell was cultured in the DMEM medium for 4 days. The cell thus cultured was treated with Compound 15 in a low-glucose, serum-free medium supplemented with 2-[N-(7-nitrobenz-2-oxa-1,3-diazol-4-yl)amino]-2-deoxy-d-glucose (2-NBDG) for 24 hours to measure the glucose absorbance at an excitation wavelength of 485 nm and an emission wavelength of 535 nm using a fluorescent detector. The same experiment was performed on Rosiglytazone and Metformin.

Chain of PTP1B (P18031 whole entry, species assumed): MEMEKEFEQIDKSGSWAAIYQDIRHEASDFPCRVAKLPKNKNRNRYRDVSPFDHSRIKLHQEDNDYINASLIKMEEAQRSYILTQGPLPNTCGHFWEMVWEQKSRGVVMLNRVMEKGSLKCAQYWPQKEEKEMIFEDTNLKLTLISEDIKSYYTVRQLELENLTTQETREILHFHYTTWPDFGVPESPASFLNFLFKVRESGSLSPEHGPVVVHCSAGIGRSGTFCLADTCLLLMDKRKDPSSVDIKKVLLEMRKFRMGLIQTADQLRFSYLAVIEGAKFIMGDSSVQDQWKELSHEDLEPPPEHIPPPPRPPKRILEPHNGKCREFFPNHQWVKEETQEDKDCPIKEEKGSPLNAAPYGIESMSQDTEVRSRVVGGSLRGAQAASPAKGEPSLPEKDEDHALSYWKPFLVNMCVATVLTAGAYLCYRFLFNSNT

IC50 (RAW264.7 macrophages) [µM]	IC50 (BV2 microglia cells) [µM]	concentration of compound remaining [1]; 0 [%]	concentration of compound remaining ([1]; 8 h) [%]	concentration of compound remaining ([1]; 24 h) [%]	concentration of compound remaining ([1]; 48 h) [%]	concentration of compound remaining ([1]; 72 h) [%]	concentration of compound remaining [3]; 0 [%]	concentration of compound remaining ([3]; 8 h) [%]	concentration of compound remaining ([3]; 24 h) [%]	concentration of compound remaining ([3]; 48 h) [%]	concentration of compound remaining ([3]; 72 h) [%]	IC50 (PTP1B) [µM]	Structure (SMILES)	inhibition in vivo at 150 mg/kg (DIO mice [4]) [%]	also measured
9.3	19.6	100	99	94	82	74	100	71	38	23	13	48	CC1(C)C=Cc2c(ccc3c2OC[C@@H](c2ccc(O)cc2O)C3)O1 [Glabridin, glabridin, reference compound]	2	ALT (U/L) (DIO mice [2]; experiment without parenthesis): 41 U/L; AST (U/L) (DIO mice [2]; experiment without parenthesis): 90 U/L; BMI (DIO mice [2]; experiment without parenthesis): 4.2; FFA (μEq/L) (DIO mice [2]; experiment without parenthesis): 1520 μEq/L; Fat (g), weight of fat removed around the epididymis and the kidney (DIO mice [2]; experiment without parenthesis): 2.70 g; LDL (DIO mice [2]; experiment without parenthesis): 10 mg/dL; Liver (g), weight of liver (DIO mice [2]; experiment without parenthesis): 1.23 g; ALT (U/L) (DIO mice [2]; { } experiment): {89} U/L; AST (U/L) (DIO mice [2]; { } experiment): {170} U/L; BMI (DIO mice [2]; { } experiment): {4.2}; FFA (μEq/L) (DIO mice [2]; { } experiment): {1913} μEq/L; Fat (g), weight of fat removed around the epididymis and the kidney (DIO mice [2]; { } experiment): {1.92} g; LDL (mg/dL) (DIO mice [2]; { } experiment): {17} mg/dL; Liver (g), weight of liver (DIO mice [2]; { } experiment): {1.48} g
													CN(CCOc1ccc(CC2SC(=O)NC2=O)cc1)c1ccccn1 (stereo not drawn) [Rosiglytazone]		2-NBDG uptake (Fold Induction) (C2C12 cells; treatment concentration 50 μM): 1.94 ± 0.15 Fold Induction
													CN(C)C(=N)N=C(N)N [Metformin]		2-NBDG uptake (Fold Induction) (C2C12 cells; treatment concentration 20 μM): 1.89 ± 0.03 Fold Induction
8.6	3.7	100	99	101	101	100	100	101	101	99	100	2.9	CCc1ccc(C2COc3c(ccc4c3CCC(C)(C)O4)C2)c(O)c1 (stereo not drawn) [Compound 4, 3-(2-hydroxy-4-ethylphenyl)-8,8-dimethyl-2,3,4,8,9,10-hexahydropyrano [2,3-f] chromene]	18	effect of suppressing the production of NO (RAW264.7 macrophages; RAW264.7 macrophages, in words): excellent; stability in words ([1]; until 3 days (72 hours)): very stable; ALT (U/L) (DIO mice [2]; ( ) experiment): (58) U/L; AST (U/L) (DIO mice [2]; ( ) experiment): (209) U/L; BMI (DIO mice [2]; ( ) experiment): (2.9); FFA (μEq/L) (DIO mice [2]; ( ) experiment): (2380) μEq/L; Fat (g), weight of fat removed around the epididymis and the kidney (DIO mice [2]; ( ) experiment): (1.20) g; LDL (mg/dL) (DIO mice [2]; ( ) experiment): (18) mg/dL; Liver (g), weight of liver (DIO mice [2]; ( ) experiment): (1.25) g; stability in words ([3]; until 3 days (72 hours)): very stable
